From patent US5034543A, “Ascorbic acid derivative and use as antioxidants” (Nippon Hypox Laboratories Incorporated, priority 1989, dated 1991)

Key:
[1] = Antioxidant action examined by using stable radicals: reduction activity of DPPH (Blois method, absorbance at 517 nm); conditions: 0.1 mM DPPH in ethanol, after 20 minutes, read-out: 50% radical eliminating concentration
Experimental: (Antioxidant action examined by using stable radicals)
Reduction activity of α,α-diphenyl-β-picrylhydrazyl (DPPH) which was a stable free radical was examined according to the M. S. Blois method (Nature, vol. 181, page. 1199, 1958) and used as an index to antioxidant action. Thus, specimens were added to 3 ml of a 0.1 mM DPPH solution in ethanol, and absorbance at a wavelength of 517 nm was measured using a spectrophotometer after 20 minutes. The difference in absorbance from the solvent control [0.5% or less of dimethylformamide (DMF)] was taken as the reduction activity.

[2] = Effects on formazan formation in the xanthine-xanthine oxidase-Nitrotetrazolium Blue system; type: biochemical; conditions: for Inhibition ratio of formazan formation: pH 7.8, 30° C., 10 minutes; for inhibition of formazan formation (result in words): xanthine-xanthine oxidase-NTB system
Experimental: (Effects on formazan formation in the xanthine-xanthine oxidase-Nitrotetrazolium Blue system)
Specimens were added to a 0.05M phosphate buffer solution (pH 7.8) containing xanthine, EDTA 2Na and Nitrotetrazolium Blue (NTB) so as to provide the respective final concentrations of 5×10^-5 M, 1×10^-4 M and 5×10^-4 M and warmed at 30° C. for 3 minutes. Xanthine oxidase (manufactured by Sigma Corp.) was added, and the resulting specimens were warmed at 30° C. for 10 minutes to colorimetrically determine formazan formed by superoxide anion radicals. The inhibition ratio of formazan formation was determined from the results at concentrations of 0.5 mM and 4 mM of each specimen.

| Compound | IC50 [1] [µM] | further results |
| --- | --- | --- |
| CC1(C)OC[C@@H]([C@H]2OC(=O)C(O)=C2OCC(=O)OCc2ccccc2)O1 [Compound 016] | 25 |  |
| CCOC(=O)CCCCOC1=C(O)C(=O)O[C@@H]1[C@@H]1COC(C)(C)O1 [Compound 008] | 16 |  |
| CCCCCCCCCCOC(=O)COC1=C(O)C(=O)O[C@@H]1[C@@H]1COC(C)(C)O1 [Compound 018] | 28 |  |
| CCCCCCCCOC1=C(O)C(=O)O[C@@H]1[C@@H]1COC(C)(C)O1 [Compound 003] | 27 |  |
| CC1(C)OC[C@@H]([C@H]2OC(=O)C(O)=C2OCc2ccccc2)O1 [Compound 006] | 22 |  |
| CC1(C)OC[C@@H]([C@H]2OC(=O)C(O)=C2OCC(=O)c2ccccc2)O1 [Compound 023] | 24 |  |
| CCCCOC(=O)COC1=C(O)C(=O)O[C@@H]1[C@@H]1COC(C)(C)O1 [Compound 019] | 25 |  |
| CCCCCCCCCCCCOC1=C(O)C(=O)O[C@@H]1[C@@H]1COC(C)(C)O1 [Compound 002] | 29 |  |
| CC1(C)OC[C@@H]([C@H]2OC(=O)C(O)=C2OCc2cccnc2)O1 [Compound 007] | 23 |  |
| CCCCCCCCCCCCCCCCCCOC1=C(O)C(=O)O[C@@H]1[C@@H]1COC(C)(C)O1 [Compound 001] | 30 |  |
| CC1(C)OC[C@@H]([C@H]2OC(=O)C(O)=C2OCCCCCCCCCCCCCCCCC(=O)O)O1 [Compound 009] | 25 |  |
| CCOC(=O)C(C)OC1=C(O)C(=O)O[C@@H]1[C@@H]1COC(C)(C)O1 (stereo partly shown) [Compound 014] | 26 |  |
| CC(C)(C)OC(=O)COC1=C(O)C(=O)O[C@@H]1[C@@H]1COC(C)(C)O1 [Compound 017] | 25 |  |

Further lines, with some results ahead:

| IC50 [1] [µM] | Compound | further results |
| --- | --- | --- |
| 22 | CCOC1=C(O)C(=O)O[C@@H]1[C@@H]1COC(C)(C)O1 [Compound 025] |  |
| 31 | CC1(C)OC[C@@H]([C@H]2OC(=O)C(O)=C2OCC#N)O1 [Compound 024] |  |
| 33 | C=CCOC1=C(O)C(=O)O[C@@H]1[C@@H]1COC(C)(C)O1 [Compound 011] |  |
| 23 | CCOC(=O)COC1=C(O)C(=O)O[C@@H]1[C@@H]1COC(C)(C)O1 [Compound 020] |  |
| 17 | COCOC1=C(O)C(=O)O[C@@H]1[C@@H]1COC(C)(C)O1 [Compound 013] |  |
| 20 | CCC(=O)COC1=C(O)C(=O)O[C@@H]1[C@@H]1COC(C)(C)O1 [Compound 022, L-5,6-O-isopropylidene-3-O-(3-butanone) ascorbic acid] | Inhibition ratio of formazan formation ([2]; 0.5 mM): 22.6%; Inhibition ratio of formazan formation ([2]; 4 mM): 26.7%; inhibition of formazan formation (result in words) [2]: remarkably inhibited formazan formation |
| 16 | CCOC(=O)CCCOC1=C(O)C(=O)O[C@@H]1[C@@H]1COC(C)(C)O1 [Compound 010] |  |
| 35 | CC1(C)OC[C@@H]([C@H]2OC(=O)C(O)=C2OCCO)O1 [Compound 012] |  |
| 32 | CCC(C)OC1=C(O)C(=O)O[C@@H]1[C@@H]1COC(C)(C)O1 (stereo partly shown) [Compound 005] |  |
| 25 | CCCCOC1=C(O)C(=O)O[C@@H]1[C@@H]1COC(C)(C)O1 [Compound 004] |  |
| 17 | CC(=O)COC1=C(O)C(=O)O[C@@H]1[C@@H]1COC(C)(C)O1 [Compound 021, L-5,6-O-isopropylidene-3-O-methylcarbomethylascorbic acid] | Inhibition ratio of formazan formation ([2]; 0.5 mM): 9.2%; Inhibition ratio of formazan formation ([2]; 4 mM): 47.4%; inhibition of formazan formation (result in words) [2]: remarkably inhibited formazan formation |
| 31 | CC1(C)OC[C@@H]([C@H]2OC(=O)C(O)=C2OCC(=O)O)O1 [Compound 015] |  |
